Experimental data: ChEMBL document CHEMBL3885881, “DrugMatrix”

Species: Rattus norvegicus
Assay: DrugMatrix - Regimen: Daily Repeat
Assay type: toxicity, organism-based, Sprague-Dawley
Design: regimen Daily Repeat, gender Male, age 6-8 weeks
Details: in vivo, po, route oral GAVAGE, […]; for ABSOLUTE BASOPHIL / ABSOLUTE EOSINOPHIL / ABSOLUTE LYMPHOCYTE / ABSOLUTE SEGMENTED NEUTROPHIL / BASOPHIL / EOSINOPHIL / ERYTHROCYTE COUNT / HEMATOCRIT / HEMOGLOBIN / LEUKOCYTE COUNT / LYMPHOCYTE / MEAN CORPUSCULAR HEMOGLOBIN / MEAN CORPUSCULAR HEMOGLOBIN CONCENTRATION / MEAN CORPUSCULAR VOLUME / MONOCYTE / NEUTROPHIL / NUCLEATED RED BLOOD CELLS / PLATELET COUNT: tissue Blood; for ALANINE AMINOTRANSFERASE / ALBUMIN / ALKALINE PHOSPHATASE / ASPARTATE AMINOTRANSFERASE / BLOOD UREA NITROGEN / CARBON DIOXIDE / CHLORIDE / CHOLESTEROL / CREATINE PHOSPHOKINASE / CREATININE / GLUCOSE / LACTATE DEHYDROGENASE / LIPASE / PHOSPHORUS / POTASSIUM / SODIUM / TOTAL BILIRUBIN / TOTAL PROTEIN / URIC ACID: tissue Plasma
[1] = 15 mg/kg, 120 h, dose level Low, time 5 day
[2] = 1200 mg/kg, 72 h, dose level High, time 3 day
[3] = 1200 mg/kg, 120 h, dose level High, time 5 day

Compound: CCC(C)(C)C(=O)O[C@H]1C[C@@H](C)C=C2C=C[C@H](C)[C@H](CC[C@@H]3C[C@@H](O)CC(=O)O3)[C@H]21 [SIMVASTATIN]
- ABSOLUTE BASOPHIL [1]: 0 CELLS/uL
- ABSOLUTE EOSINOPHIL [1]: 0 CELLS/uL
- ABSOLUTE LYMPHOCYTE [1]: 6051 CELLS/uL
- ABSOLUTE SEGMENTED NEUTROPHIL [1]: 802.33 CELLS/uL
- BASOPHIL [1]: 0%
- EOSINOPHIL [1]: 0%
- ERYTHROCYTE COUNT [1]: 5.09 x10E6/uL
- HEMATOCRIT [1]: 32.87%
- HEMOGLOBIN [1]: 12.87 G/DL
- LEUKOCYTE COUNT [1]: 6.93 x10E3/uL
- LYMPHOCYTE [1]: 87.67%
- MEAN CORPUSCULAR HEMOGLOBIN [1]: 25.33 pg
- MEAN CORPUSCULAR HEMOGLOBIN CONCENTRATION [1]: 39.2 G/DL
- MEAN CORPUSCULAR VOLUME [1]: 64.63 fL
- MONOCYTE [1]: 1%
- NEUTROPHIL [1]: 11.33%
- NUCLEATED RED BLOOD CELLS [1]: 0 /100WBC
- PLATELET COUNT [1]: 1251.33 x10E3/uL
- ALANINE AMINOTRANSFERASE [1]: 57.67 u/L
- ALBUMIN [1]: 4 G/DL
- ALKALINE PHOSPHATASE [1]: 335.33 u/L
- ASPARTATE AMINOTRANSFERASE [1]: 77.67 u/L
- BLOOD UREA NITROGEN [1]: 14.67 mg/dL
- CARBON DIOXIDE [1]: 30.67 mmol/L
- CHLORIDE [1]: 99 MEQ/L
- CHOLESTEROL [1]: 66.33 mg/dL
- CREATINE PHOSPHOKINASE [1]: 168.67 u/L
- CREATININE [1]: 0.17 mg/dL
- GLUCOSE [1]: 178.67 mg/dL
- LACTATE DEHYDROGENASE [1]: 64 u/L
- LIPASE [1]: 9.33 u/L
- PHOSPHORUS [1]: 11.6 mg/dL
- POTASSIUM [1]: 5.71 MEQ/L
- SODIUM [1]: 144.13 MEQ/L
- TOTAL BILIRUBIN [1]: 0.1 mg/dL
- TOTAL PROTEIN [1]: 5.6 G/DL
- URIC ACID [1]: 0.67 mg/dL
- ABSOLUTE BASOPHIL [2]: 0 CELLS/uL
- ABSOLUTE EOSINOPHIL [2]: 0 CELLS/uL
- ABSOLUTE LYMPHOCYTE [2]: 6224.67 CELLS/uL
- ABSOLUTE SEGMENTED NEUTROPHIL [2]: 3273.67 CELLS/uL
- BASOPHIL [2]: 0%
- EOSINOPHIL [2]: 0%
- ERYTHROCYTE COUNT [2]: 6.06 x10E6/uL
- HEMATOCRIT [2]: 37.77%
- HEMOGLOBIN [2]: 14.83 G/DL
- LEUKOCYTE COUNT [2]: 9.57 x10E3/uL
- LYMPHOCYTE [2]: 66%
- MEAN CORPUSCULAR HEMOGLOBIN [2]: 24.57 pg
- MEAN CORPUSCULAR HEMOGLOBIN CONCENTRATION [2]: 39.27 G/DL
- MEAN CORPUSCULAR VOLUME [2]: 62.5 fL
- MONOCYTE [2]: 0.67%
- NEUTROPHIL [2]: 33.33%
- NUCLEATED RED BLOOD CELLS [2]: 0 /100WBC
- PLATELET COUNT [2]: 1143.67 x10E3/uL
- ALANINE AMINOTRANSFERASE [2]: 323.67 u/L
- ALBUMIN [2]: 4.43 G/DL
- ALKALINE PHOSPHATASE [2]: 403.67 u/L
- ASPARTATE AMINOTRANSFERASE [2]: 291.33 u/L
- BLOOD UREA NITROGEN [2]: 12 mg/dL
- CARBON DIOXIDE [2]: 33 mmol/L
- CHLORIDE [2]: 97.67 MEQ/L
- CHOLESTEROL [2]: 46.33 mg/dL
- CREATINE PHOSPHOKINASE [2]: 1429 u/L
- CREATININE [2]: 0.1 mg/dL
- GLUCOSE [2]: 174.33 mg/dL
- LACTATE DEHYDROGENASE [2]: 212.33 u/L
- LIPASE [2]: 26 u/L
- PHOSPHORUS [2]: 7.2 mg/dL
- POTASSIUM [2]: 5.3 MEQ/L
- SODIUM [2]: 144.93 MEQ/L
- TOTAL BILIRUBIN [2]: 0.17 mg/dL
- TOTAL PROTEIN [2]: 5.67 G/DL
- URIC ACID [2]: 0.5 mg/dL
- ABSOLUTE BASOPHIL [3]: 0 CELLS/uL
- ABSOLUTE EOSINOPHIL [3]: 0 CELLS/uL
- ABSOLUTE LYMPHOCYTE [3]: 2769 CELLS/uL
- ABSOLUTE SEGMENTED NEUTROPHIL [3]: 4331 CELLS/uL
- BASOPHIL [3]: 0%
- EOSINOPHIL [3]: 0%
- ERYTHROCYTE COUNT [3]: 6.93 x10E6/uL
- HEMATOCRIT [3]: 43.8%
- HEMOGLOBIN [3]: 17.4 G/DL
- LEUKOCYTE COUNT [3]: 7.1 x10E3/uL
- LYMPHOCYTE [3]: 39%
- MEAN CORPUSCULAR HEMOGLOBIN [3]: 25.1 pg
- MEAN CORPUSCULAR HEMOGLOBIN CONCENTRATION [3]: 39.7 G/DL
- MEAN CORPUSCULAR VOLUME [3]: 63.2 fL
- MONOCYTE [3]: 0%
- NEUTROPHIL [3]: 61%
- NUCLEATED RED BLOOD CELLS [3]: 0 /100WBC
- PLATELET COUNT [3]: 1317 x10E3/uL
- ALANINE AMINOTRANSFERASE [3]: 285 u/L
- ALBUMIN [3]: 4.7 G/DL
- ALKALINE PHOSPHATASE [3]: 273 u/L
- ASPARTATE AMINOTRANSFERASE [3]: 367 u/L
- BLOOD UREA NITROGEN [3]: 37 mg/dL
- CARBON DIOXIDE [3]: 35 mmol/L
- CHLORIDE [3]: 82 MEQ/L
- CHOLESTEROL [3]: 103 mg/dL
- CREATINE PHOSPHOKINASE [3]: 1419 u/L
- CREATININE [3]: 0.1 mg/dL
- GLUCOSE [3]: 205 mg/dL
- LACTATE DEHYDROGENASE [3]: 510 u/L
- LIPASE [3]: 55 u/L
- PHOSPHORUS [3]: 9 mg/dL
- POTASSIUM [3]: 4.84 MEQ/L
- SODIUM [3]: 136.7 MEQ/L
- TOTAL BILIRUBIN [3]: 0.2 mg/dL
- TOTAL PROTEIN [3]: 6.1 G/DL
- URIC ACID [3]: 0.6 mg/dL
